We go through one compound from article PMC10600239, “Selective MCL-1 inhibitor ABBV-467 is efficacious in tumor models but is associated with cardiac troponin increases in patients” (Communications Medicine, 2023).

Holding throughout (test): TR-FRET binding assay, MCL-1 orthologs
On the technique in general: In TR-FRET formats the signal depends on donor and acceptor labels being close together.

One test has as its target T1, mouse Mcl1 (Mus musculus, UniProt P97287).
T1 construct: made in house; host or cells: E. coli BL21(DE3)-T1R
How it is done: (§1) Binding affinities for MCL-1, BCL-2, BCL-XL, BCL-W, and BCL2-A1 were determined using a time-resolved fluorescence resonance energy transfer (FRET) assay. Test compounds were serially diluted in DMSO starting at […] (20× starting concentration; 100% DMSO followed by a 1:10 dilution of the compound DMSO plate into assay buffer); 10 µL of the compound in 10% DMSO was then transferred into a 384-well plate (low-volume Corning #3673 assay plate). Glutathione S-transferase (GST)-tagged recombinant BCL-2, BCL-XL, MCL-1, BCL-W, or BCL2-A1 protein (1 nM each) were mixed with 100 nM Oregon Green™-labeled f-BAK peptide probe and 1 nM Tb-labeled anti-GST antibody were mixed. Then 10 µL of a 2× protein/probe/antibody mix was added to each well of increasing concentrations of test compound in assay buffer (20 mM potassium phosphate, pH 7.6, 50 mM NaCl, 1 mM ethylenediaminetetraacetic acid disodium salt dihydrate, 0.05% pluronic acid F-68, 1 mM DL-dithiothreitol) at room temperature (final concentrations listed in Supplementary Table S2). The samples were then mixed on a shaker for 1 min and incubated for an additional 1 h at room temperature. For each assay plate, a probe/antibody and protein/antibody/probe mixture were included as a negative and a positive control, respectively. Fluorescence was measured on the EnVision™ (Perkin Elmer) using a 340/35-nm excitation filter and 520/525- (F-Bak) and 495/510-nm (Tb-labeled anti-glutathione S-transferase [GST] antibody) emission filters. Dissociation constants were determined using Wang’s equation[35]. The time-resolved FRET assay can be performed in the presence of varying concentrations of human serum to determine apparent half-maximal inhibitory concentration after serum protein binding.
(§2) Supplementary Table S10: MCL-1 ortholog information and ABBV-467 affinity across species […]
(§3) Mouse Mus musculus Rattus Canis lupus Macaca sp.
(§4) Protein name Mcl1 Mcl1 M CL1 M CL1 […]
(§5) Amino acid sequence homology determined with NCBI BLAST (http://blast.ncbi.nlm.nih.gov). […]

Another test has as its target T2, dog MCL1 (Canis lupus familiaris, UniProt Q8HYS5).
T2 construct: rhesus monkey (iso4, NM_001 1089 3 7, AA 171-327), dog (NM_001 0030 16, AA17 1- 327); made in house; host or cells: E. coli BL21(DE3)-T1R
Conditions: read-out: Ki, canine MCL-1. The method, then:
as §1, §2, §3, §4, §5

In the next test the target is T3, rat Mcl1 (Rattus norvegicus, UniProt Q9Z1P3).
T3 construct: made in house; host or cells: E. coli BL21(DE3)-T1R
T3 sequence (Q9Z1P3 151-307): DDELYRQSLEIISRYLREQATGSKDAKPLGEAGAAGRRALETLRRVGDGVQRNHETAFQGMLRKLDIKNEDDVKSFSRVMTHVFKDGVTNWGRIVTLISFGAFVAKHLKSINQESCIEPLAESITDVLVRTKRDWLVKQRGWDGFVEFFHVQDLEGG
The method, then:
as §1, §2, §3, §4, §5

T2 sequence (Q8HYS5 171-327): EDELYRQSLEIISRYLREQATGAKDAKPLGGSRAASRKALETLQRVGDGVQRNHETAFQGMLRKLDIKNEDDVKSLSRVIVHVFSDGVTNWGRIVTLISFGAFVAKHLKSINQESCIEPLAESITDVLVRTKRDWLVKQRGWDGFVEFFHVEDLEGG
T1 sequence (P97287 152-308): as the sequence (Q9Z1P3 151-307) above, with D1E, E3D, A26S, D71G, T81V, I111V, C116F, S123T counted along it

For the compound `Cc1c(Cl)c2c(Cl)c(C)c1-c1c(-c3ccc(F)cc3)sc3ncnc(c13)O[C@@H](C(=O)O)Cc1cc(ccc1OCc1ccnc(-c3ccc(OC[C@H]4COCCO4)cc3)n1)OC[C@@H](CN1CCN(C)CC1)O2` [ABBV-467], the “affinity for the murine mcl1” value on mouse Mcl1 was “substantially reduced affinity”. The Ki at dog MCL1 and at rat Mcl1 was less than 0.1 nM in each case.

By Ki is commonly meant the equilibrium dissociation constant of an inhibitor or competing ligand from its target.
